According to patent US20190330224A1, “ACC INHIBITORS AND USES THEREOF” (Gilead Apollo, LLC, priority 2015, published 2019):
≈ marks a conversion by molar mass, not a printed value.

Experiments:
Fungal ACC2 = Fungal ACC2 (UniProt Q00955); conditions: read-out: Fungal ACC2 (IC50, in vitro ACC2 inhibition)
Human ACC2 = Human ACC2 (Homo sapiens, UniProt O00763); assay: In vitro ACC2 inhibition assay (ADP-Glo), human ACC2; type: biochemical; conditions: 5 nM ACC2, 20 μM ATP, 20 μM acetyl-CoA
[1] = test system: C. parapsilosis ATCC 22019; assay: Anti-Fungal Activity Assay (broth microtiter MIC), C. parapsilosis; type: cell-based, Candida parapsilosis; conditions: Lodderomyces parapsilosis, ATCC22019, 48 h, 3 replicates; MIC recorded at 48 h; read-out: MIC C. parapsilosis ATCC 22019
Procedure, shortened: (§1)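 Plate from frozen stock onto Sabouraud dextrose agar, 35° C overnight; swab colonies into RPMI 1640+MOPS; set density via standard curves; run CLSI M27-A3 broth microdilution; score MIC visually versus growth control at 48 h, soraphen additionally at 24 h.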

C. krusei ATCC 6258 = assay: Anti-Fungal Activity Assay (broth microtiter MIC), C. krusei; type: cell-based, Candida krusei; conditions: Pichia kudriavzevii, ATCC6258, 48 h, 3 replicates; MIC recorded at 48 h; read-out: MIC C. krusei ATCC 6258
Procedure, shortened: as §1

C. albicans ATCC 90028 = assay: Anti-Fungal Activity Assay (broth microtiter MIC), C. albicans; type: cell-based, Candida albicans; conditions: Candida albicans, ATCC90028, 48 h, 3 replicates; MIC recorded at 48 h; read-out: MIC C. albicans ATCC 90028
Procedure, shortened: as §1

Human ACC2, sequence (O00763 whole entry): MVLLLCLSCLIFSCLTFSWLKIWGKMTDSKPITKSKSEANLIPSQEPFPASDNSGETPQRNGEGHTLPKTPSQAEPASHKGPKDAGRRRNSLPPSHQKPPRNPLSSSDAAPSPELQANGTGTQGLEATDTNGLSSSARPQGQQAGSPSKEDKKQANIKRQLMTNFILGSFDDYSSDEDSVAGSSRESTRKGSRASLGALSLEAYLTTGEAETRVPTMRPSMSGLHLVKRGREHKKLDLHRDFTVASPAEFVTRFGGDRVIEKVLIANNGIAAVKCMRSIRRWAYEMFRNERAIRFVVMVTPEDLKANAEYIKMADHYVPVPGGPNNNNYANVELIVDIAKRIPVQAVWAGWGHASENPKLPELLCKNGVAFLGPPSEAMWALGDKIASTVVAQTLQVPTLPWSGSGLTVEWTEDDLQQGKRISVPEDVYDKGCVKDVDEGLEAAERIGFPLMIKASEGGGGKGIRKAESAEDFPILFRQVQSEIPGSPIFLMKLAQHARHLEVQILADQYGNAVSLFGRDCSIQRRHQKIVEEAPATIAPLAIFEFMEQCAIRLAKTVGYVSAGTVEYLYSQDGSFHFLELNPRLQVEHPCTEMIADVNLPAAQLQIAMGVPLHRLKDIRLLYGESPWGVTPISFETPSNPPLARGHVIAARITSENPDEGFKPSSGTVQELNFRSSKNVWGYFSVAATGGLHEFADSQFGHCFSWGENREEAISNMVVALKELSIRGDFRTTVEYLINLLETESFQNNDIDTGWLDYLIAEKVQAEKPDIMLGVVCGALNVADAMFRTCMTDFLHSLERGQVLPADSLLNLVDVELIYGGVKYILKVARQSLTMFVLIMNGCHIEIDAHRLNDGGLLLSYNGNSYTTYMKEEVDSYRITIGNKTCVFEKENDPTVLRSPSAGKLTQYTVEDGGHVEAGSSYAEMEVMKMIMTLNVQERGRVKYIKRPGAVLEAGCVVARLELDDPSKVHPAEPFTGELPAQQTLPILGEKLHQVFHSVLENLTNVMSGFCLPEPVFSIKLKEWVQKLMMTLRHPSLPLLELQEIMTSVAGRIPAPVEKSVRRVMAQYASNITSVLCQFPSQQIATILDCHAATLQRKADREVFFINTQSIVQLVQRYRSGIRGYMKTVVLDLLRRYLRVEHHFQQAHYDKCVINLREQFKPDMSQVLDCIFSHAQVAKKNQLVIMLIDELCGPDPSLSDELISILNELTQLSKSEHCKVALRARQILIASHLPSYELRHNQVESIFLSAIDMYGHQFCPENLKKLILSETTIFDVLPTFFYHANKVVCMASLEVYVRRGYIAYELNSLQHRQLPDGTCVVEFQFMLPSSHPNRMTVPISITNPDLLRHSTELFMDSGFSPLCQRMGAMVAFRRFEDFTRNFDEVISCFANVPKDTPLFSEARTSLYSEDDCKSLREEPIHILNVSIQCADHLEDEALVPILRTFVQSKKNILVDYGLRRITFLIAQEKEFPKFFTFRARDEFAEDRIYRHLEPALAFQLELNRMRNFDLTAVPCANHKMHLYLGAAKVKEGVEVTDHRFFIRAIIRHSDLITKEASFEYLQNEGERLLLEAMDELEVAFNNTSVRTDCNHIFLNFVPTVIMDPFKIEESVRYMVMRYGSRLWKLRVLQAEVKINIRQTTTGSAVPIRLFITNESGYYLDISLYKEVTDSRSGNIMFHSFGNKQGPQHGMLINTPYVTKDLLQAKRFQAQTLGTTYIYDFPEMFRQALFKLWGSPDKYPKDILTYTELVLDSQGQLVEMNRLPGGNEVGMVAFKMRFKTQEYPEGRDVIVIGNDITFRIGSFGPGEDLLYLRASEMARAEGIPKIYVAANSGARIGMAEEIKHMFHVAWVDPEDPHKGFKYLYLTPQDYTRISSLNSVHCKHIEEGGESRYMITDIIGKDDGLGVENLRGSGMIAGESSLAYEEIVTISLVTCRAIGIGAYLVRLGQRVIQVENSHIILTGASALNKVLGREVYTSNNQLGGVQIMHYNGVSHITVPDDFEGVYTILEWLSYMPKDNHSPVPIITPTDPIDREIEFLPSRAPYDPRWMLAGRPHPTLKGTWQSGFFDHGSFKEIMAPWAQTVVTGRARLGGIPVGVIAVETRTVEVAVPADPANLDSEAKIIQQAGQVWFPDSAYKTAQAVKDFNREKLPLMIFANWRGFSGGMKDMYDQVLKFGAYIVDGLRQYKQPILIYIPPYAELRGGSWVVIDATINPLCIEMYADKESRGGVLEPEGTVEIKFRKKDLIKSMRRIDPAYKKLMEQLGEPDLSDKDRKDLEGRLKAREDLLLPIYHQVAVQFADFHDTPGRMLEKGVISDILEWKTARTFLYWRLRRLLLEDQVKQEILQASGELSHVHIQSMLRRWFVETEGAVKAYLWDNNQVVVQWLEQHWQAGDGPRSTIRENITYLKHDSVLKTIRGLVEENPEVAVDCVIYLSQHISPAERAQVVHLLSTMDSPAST
Fungal ACC2, sequence (Q00955 whole entry): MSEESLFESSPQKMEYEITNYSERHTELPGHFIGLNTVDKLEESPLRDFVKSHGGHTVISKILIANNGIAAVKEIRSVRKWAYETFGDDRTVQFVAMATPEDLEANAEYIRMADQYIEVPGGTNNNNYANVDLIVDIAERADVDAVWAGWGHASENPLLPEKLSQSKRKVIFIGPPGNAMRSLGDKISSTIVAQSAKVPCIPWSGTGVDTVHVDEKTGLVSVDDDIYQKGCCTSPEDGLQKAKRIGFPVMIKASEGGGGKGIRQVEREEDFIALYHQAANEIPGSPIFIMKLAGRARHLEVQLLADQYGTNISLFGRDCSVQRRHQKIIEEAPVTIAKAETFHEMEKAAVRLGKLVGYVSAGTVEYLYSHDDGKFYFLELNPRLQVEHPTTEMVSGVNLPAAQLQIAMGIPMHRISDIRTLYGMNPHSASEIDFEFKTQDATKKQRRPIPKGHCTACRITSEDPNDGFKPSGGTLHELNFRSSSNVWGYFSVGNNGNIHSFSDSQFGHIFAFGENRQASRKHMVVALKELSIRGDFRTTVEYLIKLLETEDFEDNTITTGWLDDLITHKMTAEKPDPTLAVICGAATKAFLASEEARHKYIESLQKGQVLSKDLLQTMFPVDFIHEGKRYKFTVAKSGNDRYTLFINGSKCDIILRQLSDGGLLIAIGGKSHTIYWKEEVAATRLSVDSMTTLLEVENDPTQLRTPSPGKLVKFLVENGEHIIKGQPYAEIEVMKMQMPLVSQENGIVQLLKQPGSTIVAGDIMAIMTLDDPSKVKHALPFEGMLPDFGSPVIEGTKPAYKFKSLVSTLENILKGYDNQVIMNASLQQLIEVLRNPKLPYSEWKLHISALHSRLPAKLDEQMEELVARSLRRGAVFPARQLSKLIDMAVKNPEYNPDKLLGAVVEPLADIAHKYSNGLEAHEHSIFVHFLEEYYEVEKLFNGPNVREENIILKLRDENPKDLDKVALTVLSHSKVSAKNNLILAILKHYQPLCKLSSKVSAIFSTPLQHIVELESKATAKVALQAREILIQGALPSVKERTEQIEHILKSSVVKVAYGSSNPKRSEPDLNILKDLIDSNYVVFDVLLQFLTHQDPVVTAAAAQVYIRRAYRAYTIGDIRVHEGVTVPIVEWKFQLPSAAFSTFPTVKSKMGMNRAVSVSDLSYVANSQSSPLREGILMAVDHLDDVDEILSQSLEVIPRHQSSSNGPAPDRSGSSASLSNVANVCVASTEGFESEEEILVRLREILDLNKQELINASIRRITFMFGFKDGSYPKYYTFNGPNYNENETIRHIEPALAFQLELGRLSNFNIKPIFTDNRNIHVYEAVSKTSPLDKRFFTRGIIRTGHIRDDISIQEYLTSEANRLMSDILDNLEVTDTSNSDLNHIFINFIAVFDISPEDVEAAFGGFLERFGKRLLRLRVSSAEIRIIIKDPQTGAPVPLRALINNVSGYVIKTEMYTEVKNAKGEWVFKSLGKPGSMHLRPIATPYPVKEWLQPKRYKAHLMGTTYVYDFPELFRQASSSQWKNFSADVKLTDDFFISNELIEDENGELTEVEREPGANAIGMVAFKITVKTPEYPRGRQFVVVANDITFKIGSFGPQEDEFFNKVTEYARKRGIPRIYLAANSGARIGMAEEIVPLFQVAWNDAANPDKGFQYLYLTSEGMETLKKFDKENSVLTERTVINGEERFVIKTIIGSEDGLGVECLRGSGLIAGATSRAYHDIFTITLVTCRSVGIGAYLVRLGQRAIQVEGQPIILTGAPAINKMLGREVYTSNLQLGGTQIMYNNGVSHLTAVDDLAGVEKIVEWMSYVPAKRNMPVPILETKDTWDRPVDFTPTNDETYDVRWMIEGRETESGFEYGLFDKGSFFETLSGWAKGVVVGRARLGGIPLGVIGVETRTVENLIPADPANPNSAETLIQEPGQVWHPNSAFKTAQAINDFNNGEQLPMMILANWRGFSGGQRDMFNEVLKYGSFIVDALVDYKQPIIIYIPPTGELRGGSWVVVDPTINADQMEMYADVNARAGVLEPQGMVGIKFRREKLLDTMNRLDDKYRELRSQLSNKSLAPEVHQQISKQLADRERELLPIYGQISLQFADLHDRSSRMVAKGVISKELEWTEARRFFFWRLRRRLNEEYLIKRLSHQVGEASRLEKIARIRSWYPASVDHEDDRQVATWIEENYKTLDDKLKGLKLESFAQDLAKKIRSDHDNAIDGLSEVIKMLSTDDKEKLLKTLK

Structure (SMILES)	IC50 (Fungal ACC2)	IC50 (Human ACC2)	MIC [1]	MIC (C. krusei ATCC 6258)	MIC (C. albicans ATCC 90028)
COCCO[C@@H](Cn1c(=O)n(CCN2CCCC2=O)c(=O)c2c(C)c(-n3nccn3)sc21)c1cc(F)ccc1OC [Compound I-99, (R)-1-(2-(5-fluoro-2-methoxyphenyl)-2-(2-methoxy-ethoxy)ethyl)-5-methyl-3-(2-(2-oxopyrrolidin-1-yl)ethyl)-6-(2H-1,2,3-triazol-2-yl)thieno[2,3-d]pyrimidine-2,4(1H,3H)-dione]	0.7 to 2 nM	10 to 100 nM	2.1 to 4 µg/mL (≈ 3.58 to 6.82 µM)	2.1 to 4 µg/mL (≈ 3.58 to 6.82 µM)	2.1 to 4 µg/mL (≈ 3.58 to 6.82 µM)
COCCO[C@@H](Cn1c(=O)n(CCN2CCCNC2=O)c(=O)c2c(C)c(-n3nccn3)sc21)c1cc(F)ccc1OC [Compound I-100, (R)-1-(2-(5-fluoro-2-methoxyphenyl)-2-(2-methoxy-ethoxy)ethyl)-5-methyl-3-(2-(2-oxotetrahydropyrimidin-1 (2H)-yl)ethyl)-6-(2H-1,2,3-triazol-2-yl)thieno[2,3-d]pyrimidine-2,4(1H,3H)-dione]	2 to 10 nM	10 to 100 nM	2.1 to 4 µg/mL (≈ 3.49 to 6.65 µM)	2.1 to 4 µg/mL (≈ 3.49 to 6.65 µM)	2.1 to 4 µg/mL (≈ 3.49 to 6.65 µM)
COCCO[C@@H](COc1nc2sc(-n3nccn3)c(C)c2c(=O)n1[C@@H]1CCN(C(=O)C(C)C)C1)c1cc(F)ccc1OC [Compound I-101, 2-((R)-2-(5-fluoro-2-methoxyphenyl)-2-(2-methoxy-ethoxy)ethoxy)-3-((R)-1-isobutyrylpyrrolidin-3-yl)-5-methyl-6-(2H-1,2,3-triazol-2-yl)thieno[2,3-d]pyrimidin-4(3H)-one]	10 to 100 nM	> 1000 nM	2.1 to 4 µg/mL (≈ 3.42 to 6.51 µM)	2.1 to 4 µg/mL (≈ 3.42 to 6.51 µM)	2.1 to 4 µg/mL (≈ 3.42 to 6.51 µM)
COc1ccc(F)cc1[C@H](COc1nc2sc(-n3nccn3)c(C)c2c(=O)n1[C@H]1CNC(=O)C1)OCCO [Compound I-102, 2-((R)-2-(5-fluoro-2-methoxyphenyl)-2-(2-hydroxy-ethoxy)ethoxy)-5-methyl-3-((R)-5-oxopyrrolidin-3-yl)-6-(2H-1,2,3-triazol-2-yl)thieno[2,3-d]pyrimidin-4(3H)-one]	10 to 100 nM	> 1000 nM	2.1 to 4 µg/mL (≈ 3.86 to 7.35 µM)	2.1 to 4 µg/mL (≈ 3.86 to 7.35 µM)	2.1 to 4 µg/mL (≈ 3.86 to 7.35 µM)
COc1ccc(F)cc1[C@H](COc1nc2sc(-n3nccn3)c(C)c2c(=O)n1[C@@H]1CNC(=O)C1)OCCO [Compound I-103, 2-((R)-2-(5-fluoro-2-methoxyphenyl)-2-(2-hydroxy-ethoxy)ethoxy)-5-methyl-3-((S)-5-oxopyrrolidin-3-yl)-6-(2H-1,2,3-triazol-2-yl)thieno[2,3-d]pyrimidin-4(3H)-one]	10 to 100 nM	> 1000 nM	2.1 to 4 µg/mL (≈ 3.86 to 7.35 µM)	2.1 to 4 µg/mL (≈ 3.86 to 7.35 µM)	2.1 to 4 µg/mL (≈ 3.86 to 7.35 µM)
COCCO[C@@H](Cn1c(=O)n([C@H]2CCN(C(C)C)C2=O)c(=O)c2c(C)c(-n3nccn3)sc21)c1cc(F)ccc1OC [Compound I-104, 1-((R)-2-(5-fluoro-2-methoxyphenyl)-2-(2-methoxy-ethoxy)ethyl)-3-((S)-1-isopropyl-2-oxopyrrolidin-3-yl)-5-methyl-6-(2H-1,2,3-triazol-2-yl)thieno[2,3-d]pyrimidine-2,4(1H,3H)-dione]	0.7 to 2 nM	10 to 100 nM	2.1 to 4 µg/mL (≈ 3.5 to 6.66 µM)	2.1 to 4 µg/mL (≈ 3.5 to 6.66 µM)	2.1 to 4 µg/mL (≈ 3.5 to 6.66 µM)
COCCO[C@@H](Cn1c(=O)n([C@@H]2CCN(C(C)C)C2=O)c(=O)c2c(C)c(-n3nccn3)sc21)c1cc(F)ccc1OC [Compound I-105, 1-((R)-2-(5-fluoro-2-methoxyphenyl)-2-(2-methoxy-ethoxy)ethyl)-3-((R)-1-isopropyl-2-oxopyrrolidin-3-yl)-5-methyl-6-(2H-1,2,3-triazol-2-yl)thieno[2,3-d]pyrimidine-2,4(1H,3H)-dione]	2 to 10 nM	10 to 100 nM	2.1 to 4 µg/mL (≈ 3.5 to 6.66 µM)	2.1 to 4 µg/mL (≈ 3.5 to 6.66 µM)	2.1 to 4 µg/mL (≈ 3.5 to 6.66 µM)
COc1ccc(F)cc1[C@H](COc1nc2sc(-n3nccn3)c(C)c2c(=O)n1[C@@H]1CC(=O)N(C)C1)OCCO [Compound I-112, 2-((R)-2-(5-fluoro-2-methoxyphenyl)-2-(2-hydroxy-ethoxy)ethoxy)-5-methyl-3-((R)-1-methyl-5-oxopyrrolidin-3-yl)-6-(2H-1,2,3-triazol-2-yl)thieno[2,3-d]pyrimidin-4(3H)-one]	10 to 100 nM	> 1000 nM	2.1 to 4 µg/mL (≈ 3.76 to 7.16 µM)	2.1 to 4 µg/mL (≈ 3.76 to 7.16 µM)	2.1 to 4 µg/mL (≈ 3.76 to 7.16 µM)
COCCO[C@@H](Cn1c(=O)n([C@@]2(C)CNC(=O)C2)c(=O)c2c(C)c(-n3nccn3)sc21)c1cc(F)ccc1OC [Compound I-114, 1-((R)-2-(5-fluoro-2-methoxyphenyl)-2-(2-methoxyethoxy)ethyl)-5-methyl-3-((R)-3-methyl-5-oxopyrrolidin-3-yl)-6-(2H-1,2,3-triazol-2-yl)thieno[2,3-d]pyrimidine-2,4(1H,3H)-dione]	2 to 10 nM	10 to 100 nM	2.1 to 4 µg/mL (≈ 3.67 to 6.99 µM)	2.1 to 4 µg/mL (≈ 3.67 to 6.99 µM)	2.1 to 4 µg/mL (≈ 3.67 to 6.99 µM)
COCCO[C@@H](Cn1c(=O)n([C@]2(C)CNC(=O)C2)c(=O)c2c(C)c(-n3nccn3)sc21)c1cc(F)ccc1OC [Compound I-115, 1-((R)-2-(5-fluoro-2-methoxyphenyl)-2-(2-methoxy-ethoxy)ethyl)-5-methyl-3-((S)-3-methyl-5-oxopyrrolidin-3-yl)-6-(2H-1,2,3-triazol-2-yl)thieno[2,3-d]pyrimidine-24(1H,3H)-dione]	0.7 to 2 nM	10 to 100 nM	2.1 to 4 µg/mL (≈ 3.67 to 6.99 µM)	2.1 to 4 µg/mL (≈ 3.67 to 6.99 µM)	2.1 to 4 µg/mL (≈ 3.67 to 6.99 µM)
COc1ccc(F)cc1[C@H](Cn1c(=O)n([C@H]2CCCN(C)C2=O)c(=O)c2c(C)c(-n3nccn3)sc21)OCCC#N [Compound I-116, 3-((R)-1-(5-fluoro-2-methoxyphenyl)-2-(5-methyl-3-((S)-1-methyl-2-oxopiperidin-3-yl)-2,4-dioxo-6-(2H-1,2,3-triazol-2-yl)-3,4-dihydrothieno[2,3-d]pyrimidin-1(2H)-yl)ethoxy)propanenitrile]	0.7 to 2 nM	10 to 100 nM	2.1 to 4 µg/mL (≈ 3.61 to 6.88 µM)	2.1 to 4 µg/mL (≈ 3.61 to 6.88 µM)	2.1 to 4 µg/mL (≈ 3.61 to 6.88 µM)
COc1ccc(F)cc1[C@H](Cn1c(=O)n([C@@H]2CCCN(C)C2=O)c(=O)c2c(C)c(-n3nccn3)sc21)OCCC#N [Compound I-117, 3-((R)-1-(5-fluoro-2-methoxyphenyl)-2-(5-methyl-3-((R)-1-methyl-2-oxopiperidin-3-yl)-2,4-dioxo-6-(2H-1,2,3-triazol-2-yl)-3,4-dihydrothieno[2,3-d]pyrimidin-1(2H)-yl)ethoxy)propanenitrile]	0.7 to 2 nM	2 to 10 nM	2.1 to 4 µg/mL (≈ 3.61 to 6.88 µM)	2.1 to 4 µg/mL (≈ 3.61 to 6.88 µM)	2.1 to 4 µg/mL (≈ 3.61 to 6.88 µM)
COc1ccc(F)cc1[C@H](Cn1c(=O)n([C@@]2(C)CNC(=O)C2)c(=O)c2c(C)c(-n3nccn3)sc21)OCCO [Compound I-118, 1-((R)-2-(5-fluoro-2-methoxyphenyl)-2-(2-hydroxy-ethoxy)ethyl)-5-methyl-3-((R)-3-methyl-5-oxopyrrolidin-3-yl)-6-(2H-1,2,3-triazol-2-yl)thieno[2,3-d]pyrimidine-2,4(1H,3H)-dione]	2 to 10 nM	10 to 100 nM	2.1 to 4 µg/mL (≈ 3.76 to 7.16 µM)	2.1 to 4 µg/mL (≈ 3.76 to 7.16 µM)	2.1 to 4 µg/mL (≈ 3.76 to 7.16 µM)
COc1ccc(F)cc1[C@H](Cn1c(=O)n([C@]2(C)CNC(=O)C2)c(=O)c2c(C)c(-n3nccn3)sc21)OCCO [Compound I-119, 1-((R)-2-(5-fluoro-2-methoxyphenyl)-2-(2-hydroxyethoxy)ethyl)-5-methyl-3-((S)-3-methyl-5-oxopyrrolidin-3-yl)-6-(2H-1,2,3-triazol-2-yl)thieno[2,3-d]pyrimidine-2,4(1H,3H)-dione]	2 to 10 nM	10 to 100 nM	2.1 to 4 µg/mL (≈ 3.76 to 7.16 µM)	2.1 to 4 µg/mL (≈ 3.76 to 7.16 µM)	2.1 to 4 µg/mL (≈ 3.76 to 7.16 µM)
